Measurements: US11370770B2, “3-arylindazoles as selective MEK4 inhibitors” (priority 2019, dated 2022)

Legend:
IKK-EPSILON = IKK-EPSILON (Homo sapiens (Human), UniProt Q14164); assay: KINOMEscan binding assay; details: percent of control
PRP6 = assay: KINOMEscan binding assay; details: percent of control
panel of 57 kinases = details: 10 μM; S(35) criterion
MRCKA = MRCKA (Homo sapiens (Human), UniProt Q5VT25); assay: KINOMEscan binding assay; details: percent of control
MAP3K4 = MAP3K4 (Homo sapiens (Human), UniProt Q9Y6R4); assay: KINOMEscan binding assay; details: percent of control
MKNK2 = MKNK2 (Homo sapiens (Human), UniProt Q9HBH9); assay: KINOMEscan binding assay; details: percent of control
[1] = molecular target: ABL1(T3151)-non-phosphorylated (Homo sapiens (Human), UniProt P00519, T315I); assay: KINOMEscan binding assay; details: percent of control
NLK = NLK (Homo sapiens (Human), UniProt Q9UBE8); assay: KINOMEscan binding assay; details: percent of control
MEK5 [2] = molecular target: T1, MEK5 (Homo sapiens (Human), UniProt Q13163); assay: KINOMEscan binding assay; details: percent of control
MLK2 = MLK2 (Homo sapiens (Human), UniProt Q02779); assay: KINOMEscan binding assay; details: percent of control
MEK6 = MEK6 (Homo sapiens (Human), UniProt P52564); assay: MEK family profiling ADP-Glo, MEK6; type: biochemical; details: p38α substrate; 0.6 μM ATP; read-out: IC50 MEK isoform 6
MKK7 = MKK7 (Homo sapiens (Human), UniProt O14733); assay: KINOMEscan binding assay; details: percent of control
VEGFR2 = VEGFR2 (Homo sapiens (Human), UniProt P35968); assay: KINOMEscan binding assay; details: percent of control
MEK1 = MEK1 (Homo sapiens (Human), UniProt Q02750); assay: MEK family profiling ADP-Glo, MEK1; type: biochemical; details: Erk2 substrate; 0.6 μM ATP; read-out: IC50 MEK isoform 1
DMPK = DMPK (Homo sapiens (Human), UniProt Q09013); assay: KINOMEscan binding assay; details: percent of control
ZAP70 = ZAP70 (Homo sapiens (Human), UniProt P43403); assay: KINOMEscan binding assay; details: percent of control
CHEK2 = CHEK2 (Homo sapiens (Human), UniProt O96017); assay: KINOMEscan binding assay; details: percent of control
[3] = molecular target: (Homo sapiens (Human), UniProt P49761); assay: KINOMEscan binding assay; details: C;L3; percent of control
PKN2 = PKN2 (Homo sapiens (Human), UniProt Q16513); assay: KINOMEscan binding assay; details: percent of control
EPHB4 = EPHB4 (Homo sapiens (Human), UniProt P54760); assay: KINOMEscan binding assay; details: percent of control
CDK2 = CDK2 (Homo sapiens (Human), UniProt P24941); assay: KINOMEscan binding assay; details: percent of control
MEK2 [4] = molecular target: T2, MEK2 (Homo sapiens (Human), UniProt P36507); assay: MEK family profiling ADP-Glo, MEK2; type: biochemical; details: Erk2 substrate; 0.6 μM ATP; read-out: IC50 MEK isoform 2
ERK2 = ERK2 (Homo sapiens (Human), UniProt P28482); assay: KINOMEscan binding assay; details: percent of control
MUSK = MUSK (Homo sapiens (Human), UniProt O15146); assay: KINOMEscan binding assay; details: percent of control
[5] = molecular target: (Homo sapiens (Human), UniProt P49674); assay: KINOMEscan binding assay; details: CSML1E; percent of control
AAK1 = AAK1 (Homo sapiens (Human), UniProt Q2M2I8); assay: KINOMEscan binding assay; details: percent of control
MEK5 [6] = molecular target: T1, MEK5; assay: MEK family profiling ADP-Glo, MEK5; type: biochemical; details: Erk5 substrate; 0.6 μM ATP; read-out: IC50 MEK isoform 5
CDK9 = CDK9 (Homo sapiens (Human), UniProt P50750); assay: KINOMEscan binding assay; details: percent of control
FGFR1 = FGFR1 (Homo sapiens (Human), UniProt P11362); assay: KINOMEscan binding assay; details: percent of control
HIPK1 = HIPK1 (Homo sapiens (Human), UniProt Q86Z02); assay: KINOMEscan binding assay; details: percent of control
EPHA2 = EPHA2 (Homo sapiens (Human), UniProt P29317); assay: KINOMEscan binding assay; details: percent of control
MEK2 [7] = molecular target: T2, MEK2; assay: KINOMEscan binding assay; details: percent of control
ICK = ICK (Homo sapiens (Human), UniProt Q9UPZ9); assay: KINOMEscan binding assay; details: percent of control
RAF1 = RAF1 (Homo sapiens (Human), UniProt P04049); assay: KINOMEscan binding assay; details: percent of control
SNARK = SNARK (Homo sapiens (Human), UniProt Q9H093); assay: KINOMEscan binding assay; details: percent of control
CSNK1A1L = CSNK1A1L (Homo sapiens (Human), UniProt Q8N752); assay: KINOMEscan binding assay; details: percent of control
PRKCD = PRKCD (Homo sapiens (Human), UniProt Q05655); assay: KINOMEscan binding assay; details: percent of control
CAMK4 = CAMK4 (Homo sapiens (Human), UniProt Q16566); assay: KINOMEscan binding assay; details: percent of control
MEK3 = MEK3 (Homo sapiens (Human), UniProt P46734); assay: KINOMEscan binding assay; details: percent of control
PHKG2 = PHKG2 (Homo sapiens (Human), UniProt P15735); assay: KINOMEscan binding assay; details: percent of control
EPHA6 = EPHA6 (Homo sapiens (Human), UniProt Q9UF33); assay: KINOMEscan binding assay; details: percent of control

T1 sequence (Q13163 whole entry): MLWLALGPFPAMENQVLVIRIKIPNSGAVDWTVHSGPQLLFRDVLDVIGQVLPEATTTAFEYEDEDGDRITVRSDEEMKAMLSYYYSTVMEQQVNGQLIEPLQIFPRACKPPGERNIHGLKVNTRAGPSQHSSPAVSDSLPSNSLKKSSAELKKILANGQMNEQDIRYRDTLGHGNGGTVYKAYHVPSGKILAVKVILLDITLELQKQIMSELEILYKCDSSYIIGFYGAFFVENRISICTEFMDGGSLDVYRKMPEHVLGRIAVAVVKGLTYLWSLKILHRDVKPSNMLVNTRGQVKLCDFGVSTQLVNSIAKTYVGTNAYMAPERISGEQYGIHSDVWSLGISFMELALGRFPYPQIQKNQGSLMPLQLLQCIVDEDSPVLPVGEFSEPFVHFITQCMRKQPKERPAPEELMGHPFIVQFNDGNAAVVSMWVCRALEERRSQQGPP
T2 sequence (P36507 whole entry, canonical isoform): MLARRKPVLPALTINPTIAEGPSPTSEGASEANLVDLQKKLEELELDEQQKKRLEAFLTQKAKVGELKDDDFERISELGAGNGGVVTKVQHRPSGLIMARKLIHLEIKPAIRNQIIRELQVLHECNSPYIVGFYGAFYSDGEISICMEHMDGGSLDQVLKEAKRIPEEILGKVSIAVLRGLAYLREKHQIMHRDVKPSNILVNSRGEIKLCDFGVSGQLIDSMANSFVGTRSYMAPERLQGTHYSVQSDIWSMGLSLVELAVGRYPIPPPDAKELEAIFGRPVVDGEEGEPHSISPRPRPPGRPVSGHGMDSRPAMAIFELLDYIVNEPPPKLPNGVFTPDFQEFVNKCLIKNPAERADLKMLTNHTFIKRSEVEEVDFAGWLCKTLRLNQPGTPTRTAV
Chain of MRCKA (Q5VT25 whole entry): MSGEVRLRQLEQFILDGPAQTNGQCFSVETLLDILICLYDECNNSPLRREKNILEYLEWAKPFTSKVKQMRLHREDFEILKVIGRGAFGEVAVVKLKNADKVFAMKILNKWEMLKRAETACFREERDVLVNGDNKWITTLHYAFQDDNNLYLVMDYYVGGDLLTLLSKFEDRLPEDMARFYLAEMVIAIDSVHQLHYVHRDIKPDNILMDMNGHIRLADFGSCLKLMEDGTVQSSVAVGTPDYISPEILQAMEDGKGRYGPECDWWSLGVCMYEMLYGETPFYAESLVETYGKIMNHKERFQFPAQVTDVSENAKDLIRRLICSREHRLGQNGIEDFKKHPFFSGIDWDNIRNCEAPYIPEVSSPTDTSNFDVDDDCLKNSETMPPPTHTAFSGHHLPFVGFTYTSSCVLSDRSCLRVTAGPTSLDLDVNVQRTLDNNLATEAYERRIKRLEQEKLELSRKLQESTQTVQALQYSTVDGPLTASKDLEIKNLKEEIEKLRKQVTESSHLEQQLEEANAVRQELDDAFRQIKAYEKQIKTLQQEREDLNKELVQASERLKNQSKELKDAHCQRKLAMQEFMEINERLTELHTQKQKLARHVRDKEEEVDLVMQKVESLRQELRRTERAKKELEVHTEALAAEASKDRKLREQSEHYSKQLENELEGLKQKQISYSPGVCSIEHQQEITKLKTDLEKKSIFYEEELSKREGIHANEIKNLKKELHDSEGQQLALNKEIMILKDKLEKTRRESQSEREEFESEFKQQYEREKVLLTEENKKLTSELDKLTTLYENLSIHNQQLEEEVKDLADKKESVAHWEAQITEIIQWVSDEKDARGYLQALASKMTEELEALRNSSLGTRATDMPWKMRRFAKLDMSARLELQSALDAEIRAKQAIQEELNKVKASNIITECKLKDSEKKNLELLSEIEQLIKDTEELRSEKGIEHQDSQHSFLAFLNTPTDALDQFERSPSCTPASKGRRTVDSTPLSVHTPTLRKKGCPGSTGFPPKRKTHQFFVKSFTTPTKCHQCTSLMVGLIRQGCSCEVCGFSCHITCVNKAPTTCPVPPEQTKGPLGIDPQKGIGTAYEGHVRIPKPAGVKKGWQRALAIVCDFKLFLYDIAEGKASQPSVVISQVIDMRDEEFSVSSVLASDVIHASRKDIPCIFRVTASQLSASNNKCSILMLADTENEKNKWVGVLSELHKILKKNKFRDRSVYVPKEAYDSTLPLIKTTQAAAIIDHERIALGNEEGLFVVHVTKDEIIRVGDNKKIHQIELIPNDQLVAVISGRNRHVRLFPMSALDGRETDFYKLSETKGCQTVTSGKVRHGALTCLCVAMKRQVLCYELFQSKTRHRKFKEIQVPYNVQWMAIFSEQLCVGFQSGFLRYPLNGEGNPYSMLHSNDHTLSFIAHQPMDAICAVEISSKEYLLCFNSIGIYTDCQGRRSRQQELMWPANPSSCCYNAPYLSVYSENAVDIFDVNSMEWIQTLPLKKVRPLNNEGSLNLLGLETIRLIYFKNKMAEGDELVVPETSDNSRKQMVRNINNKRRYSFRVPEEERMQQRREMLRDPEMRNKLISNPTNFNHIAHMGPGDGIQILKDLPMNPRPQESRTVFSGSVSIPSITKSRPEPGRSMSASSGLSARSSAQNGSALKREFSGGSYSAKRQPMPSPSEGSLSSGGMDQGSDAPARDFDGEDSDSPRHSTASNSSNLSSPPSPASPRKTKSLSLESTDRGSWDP
Chain of (Homo sapiens (Human), UniProt P49674) (P49674 whole entry): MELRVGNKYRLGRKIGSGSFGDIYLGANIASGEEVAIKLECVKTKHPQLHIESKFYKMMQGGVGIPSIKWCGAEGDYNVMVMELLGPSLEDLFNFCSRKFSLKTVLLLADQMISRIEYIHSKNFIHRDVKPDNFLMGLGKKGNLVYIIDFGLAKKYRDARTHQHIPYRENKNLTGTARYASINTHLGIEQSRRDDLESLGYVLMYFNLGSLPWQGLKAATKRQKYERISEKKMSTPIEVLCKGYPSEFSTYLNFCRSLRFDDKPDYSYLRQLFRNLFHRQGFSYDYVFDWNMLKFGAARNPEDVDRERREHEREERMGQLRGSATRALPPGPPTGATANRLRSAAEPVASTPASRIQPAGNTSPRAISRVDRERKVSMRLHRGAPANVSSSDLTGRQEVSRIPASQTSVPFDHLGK
Chain of (Homo sapiens (Human), UniProt P49761) (P49761 whole entry): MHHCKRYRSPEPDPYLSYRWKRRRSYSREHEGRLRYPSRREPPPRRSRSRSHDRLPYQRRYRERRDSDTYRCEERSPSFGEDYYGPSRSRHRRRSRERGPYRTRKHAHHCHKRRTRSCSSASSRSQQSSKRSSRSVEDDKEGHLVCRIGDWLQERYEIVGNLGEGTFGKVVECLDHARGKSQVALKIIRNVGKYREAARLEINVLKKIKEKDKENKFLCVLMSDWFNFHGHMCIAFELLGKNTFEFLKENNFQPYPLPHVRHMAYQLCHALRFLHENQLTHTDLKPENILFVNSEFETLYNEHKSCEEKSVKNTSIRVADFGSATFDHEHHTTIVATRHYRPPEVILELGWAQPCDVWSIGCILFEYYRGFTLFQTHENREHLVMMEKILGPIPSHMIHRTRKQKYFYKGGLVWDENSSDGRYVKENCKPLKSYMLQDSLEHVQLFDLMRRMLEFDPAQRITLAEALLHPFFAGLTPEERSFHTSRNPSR
Chain of ZAP70 (P43403 whole entry): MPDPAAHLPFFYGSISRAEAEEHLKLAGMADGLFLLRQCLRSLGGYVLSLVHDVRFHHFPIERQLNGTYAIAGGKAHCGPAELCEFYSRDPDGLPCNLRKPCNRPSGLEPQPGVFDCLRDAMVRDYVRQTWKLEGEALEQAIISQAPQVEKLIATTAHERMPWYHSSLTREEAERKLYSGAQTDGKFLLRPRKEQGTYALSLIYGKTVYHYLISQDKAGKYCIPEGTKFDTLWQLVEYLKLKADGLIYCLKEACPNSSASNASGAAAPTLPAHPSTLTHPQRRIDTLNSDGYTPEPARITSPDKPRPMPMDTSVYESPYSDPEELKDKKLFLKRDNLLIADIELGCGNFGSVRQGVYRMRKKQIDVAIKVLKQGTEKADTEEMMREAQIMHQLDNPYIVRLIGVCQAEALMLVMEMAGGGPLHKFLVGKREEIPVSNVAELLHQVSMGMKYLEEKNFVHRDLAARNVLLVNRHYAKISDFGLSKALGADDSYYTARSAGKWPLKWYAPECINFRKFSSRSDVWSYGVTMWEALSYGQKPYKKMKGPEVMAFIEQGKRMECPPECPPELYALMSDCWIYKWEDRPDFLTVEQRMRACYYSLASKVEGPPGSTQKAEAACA
Chain of CAMK4 (Q16566 whole entry): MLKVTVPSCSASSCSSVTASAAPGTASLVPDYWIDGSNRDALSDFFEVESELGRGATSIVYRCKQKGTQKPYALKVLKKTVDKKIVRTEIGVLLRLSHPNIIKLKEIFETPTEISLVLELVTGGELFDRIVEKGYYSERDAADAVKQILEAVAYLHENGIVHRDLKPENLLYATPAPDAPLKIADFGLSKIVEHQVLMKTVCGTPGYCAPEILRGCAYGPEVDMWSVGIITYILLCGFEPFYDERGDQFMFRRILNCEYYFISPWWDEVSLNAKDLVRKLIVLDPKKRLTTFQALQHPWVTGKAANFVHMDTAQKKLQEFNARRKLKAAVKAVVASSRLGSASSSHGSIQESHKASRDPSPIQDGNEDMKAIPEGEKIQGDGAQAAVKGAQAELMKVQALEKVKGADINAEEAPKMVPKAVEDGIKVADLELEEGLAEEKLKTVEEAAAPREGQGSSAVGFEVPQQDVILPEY
Chain of CDK9 (P50750 whole entry): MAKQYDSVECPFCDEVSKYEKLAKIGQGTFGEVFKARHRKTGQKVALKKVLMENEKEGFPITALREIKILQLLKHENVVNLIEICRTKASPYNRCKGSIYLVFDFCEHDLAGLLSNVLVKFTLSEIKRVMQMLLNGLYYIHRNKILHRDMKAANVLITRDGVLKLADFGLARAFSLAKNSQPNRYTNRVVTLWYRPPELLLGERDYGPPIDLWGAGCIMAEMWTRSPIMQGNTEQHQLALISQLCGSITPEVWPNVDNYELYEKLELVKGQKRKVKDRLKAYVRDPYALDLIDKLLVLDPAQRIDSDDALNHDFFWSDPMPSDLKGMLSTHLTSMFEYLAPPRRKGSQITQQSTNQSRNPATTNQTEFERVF

O=C(O)c1ccc(-c2n[nH]c3cc(F)ccc23)cc1 [Compound 6ff, 4-(6-fluoro-2H-indazol-3-yl)benzoic Acid] was tested, and the “% Ctrl @ 10000 nM” value (IKK-EPSILON) was 43 % Ctrl, the “% Ctrl @ 10000 nM” value (PRP6) was 52 % Ctrl and the “number of kinases hit, out of 57 tested” value (panel of 57 kinases) was 12. For the same compound, the “% Ctrl @ 10000 nM” value (MRCKA) was 89 % Ctrl, the “% Ctrl @ 10000 nM” value (MAP3K4) was 100 % Ctrl and the “% Ctrl @ 10000 nM” value (MKNK2) was 43 % Ctrl. For the same compound, the “% Ctrl @ 10000 nM” value [1] was 15 % Ctrl, the “% Ctrl @ 10000 nM” value (NLK) was 99 % Ctrl and the “% Ctrl @ 10000 nM” value (MEK5 [2]) was 44 % Ctrl. The “% Ctrl @ 10000 nM” value (MLK2) was 95 % Ctrl, the IC50 (MEK6) was 11 µM and the “% Ctrl @ 10000 nM” value (MKK7) was 52 % Ctrl. For the same compound, the “% Ctrl @ 10000 nM” value (VEGFR2) was 3.5 % Ctrl, the IC50 (MEK1) was 15 µM and the “% Ctrl @ 10000 nM” value (DMPK) was 100 % Ctrl. For the same compound, the “% Ctrl @ 10000 nM” value (ZAP70) was 73 % Ctrl, the “% Ctrl @ 10000 nM” value (CHEK2) was 39 % Ctrl and the “% Ctrl @ 10000 nM” value [3] was 100 % Ctrl. The “% Ctrl @ 10000 nM” value (PKN2) was 95 % Ctrl, the “% Ctrl @ 10000 nM” value (EPHB4) was 100 % Ctrl and the “% Ctrl @ 10000 nM” value (CDK2) was 100 % Ctrl. The IC50 (MEK2 [4]) was > 27 µM, the “% Ctrl @ 10000 nM” value (ERK2) was 100 % Ctrl and the “% Ctrl @ 10000 nM” value (MUSK) was 65 % Ctrl. For the same compound, the “% Ctrl @ 10000 nM” value [5] was 100 % Ctrl, the “% Ctrl @ 10000 nM” value (AAK1) was 55 % Ctrl and the IC50 (MEK5 [6]) was > 27 µM. For the same compound, the “% Ctrl @ 10000 nM” value (CDK9) was 98 % Ctrl, the “% Ctrl @ 10000 nM” value (FGFR1) was 99 % Ctrl and the “% Ctrl @ 10000 nM” value (HIPK1) was 48 % Ctrl. The “% Ctrl @ 10000 nM” value (EPHA2) was 100 % Ctrl, the “% Ctrl @ 10000 nM” value (MEK2 [7]) was 61 % Ctrl and the “% Ctrl @ 10000 nM” value (ICK) was 26 % Ctrl. For the same compound, the “% Ctrl @ 10000 nM” value (RAF1) was 100 % Ctrl, the “% Ctrl @ 10000 nM” value (SNARK) was 53 % Ctrl and the “% Ctrl @ 10000 nM” value (CSNK1A1L) was 93 % Ctrl. For the same compound, the “% Ctrl @ 10000 nM” value (PRKCD) was 100 % Ctrl, the “% Ctrl @ 10000 nM” value (CAMK4) was 100 % Ctrl and the “% Ctrl @ 10000 nM” value (MEK3) was 1.6 % Ctrl. For the same compound, the “% Ctrl @ 10000 nM” value (PHKG2) was 89 % Ctrl and the “% Ctrl @ 10000 nM” value (EPHA6) was 99 % Ctrl.

In the case of O=C(O)c1cccc(-c2n[nH]c3ccccc23)c1 [Compound 6a, 3-(1H-indazol-3-yl)benzoic Acid], the “% Ctrl @ 10000 nM” value (IKK-EPSILON) is reported as 48 % Ctrl, the “% Ctrl @ 10000 nM” value (PRP6) is reported as 76 % Ctrl and the “number of kinases hit, out of 57 tested” value (panel of 57 kinases) is reported as 5. The “% Ctrl @ 10000 nM” value (MRCKA) was 95 % Ctrl, the “% Ctrl @ 10000 nM” value (MAP3K4) was 90 % Ctrl and the “% Ctrl @ 10000 nM” value (MKNK2) was 66 % Ctrl. For the same compound, the “% Ctrl @ 10000 nM” value [1] was 67 % Ctrl, the “% Ctrl @ 10000 nM” value (NLK) was 97 % Ctrl and the “% Ctrl @ 10000 nM” value (MEK5 [2]) was 88 % Ctrl. The “% Ctrl @ 10000 nM” value (MLK2) was 100 % Ctrl, the IC50 (MEK6) was 10 µM and the “% Ctrl @ 10000 nM” value (MKK7) was 66 % Ctrl. For the same compound, the “% Ctrl @ 10000 nM” value (VEGFR2) was 20 % Ctrl, the IC50 (MEK1) was 12 µM and the “% Ctrl @ 10000 nM” value (DMPK) was 100 % Ctrl. For the same compound, the “% Ctrl @ 10000 nM” value (ZAP70) was 70 % Ctrl, the “% Ctrl @ 10000 nM” value (CHEK2) was 76 % Ctrl and the “% Ctrl @ 10000 nM” value [3] was 94 % Ctrl. For the same compound, the “% Ctrl @ 10000 nM” value (PKN2) was 100 % Ctrl, the “% Ctrl @ 10000 nM” value (EPHB4) was 89 % Ctrl and the “% Ctrl @ 10000 nM” value (CDK2) was 97 % Ctrl. For the same compound, the IC50 (MEK2 [4]) was > 27 µM, the “% Ctrl @ 10000 nM” value (ERK2) was 96 % Ctrl and the “% Ctrl @ 10000 nM” value (MUSK) was 100 % Ctrl. The “% Ctrl @ 10000 nM” value [5] was 88 % Ctrl, the “% Ctrl @ 10000 nM” value (AAK1) was 87 % Ctrl and the IC50 (MEK5 [6]) was > 27 µM. The “% Ctrl @ 10000 nM” value (CDK9) was 95 % Ctrl, the “% Ctrl @ 10000 nM” value (FGFR1) was 100 % Ctrl and the “% Ctrl @ 10000 nM” value (HIPK1) was 43 % Ctrl. The “% Ctrl @ 10000 nM” value (EPHA2) was 92 % Ctrl, the “% Ctrl @ 10000 nM” value (MEK2 [7]) was 60 % Ctrl and the “% Ctrl @ 10000 nM” value (ICK) was 43 % Ctrl. For the same compound, the “% Ctrl @ 10000 nM” value (RAF1) was 100 % Ctrl, the “% Ctrl @ 10000 nM” value (SNARK) was 68 % Ctrl and the “% Ctrl @ 10000 nM” value (CSNK1A1L) was 87 % Ctrl. The “% Ctrl @ 10000 nM” value (PRKCD) was 100 % Ctrl, the “% Ctrl @ 10000 nM” value (CAMK4) was 100 % Ctrl and the “% Ctrl @ 10000 nM” value (MEK3) was 13 % Ctrl. The “% Ctrl @ 10000 nM” value (PHKG2) was 98 % Ctrl and the “% Ctrl @ 10000 nM” value (EPHA6) was 97 % Ctrl.
